{
  "source": "patent US20030129678A1",
  "about": "“Methods, pharmaceutical formulations and kits for identification of subjects at risk for cancer” (priority 1999, published 2003)",
  "key": {"[1]": {"system": "A375 human melanoma tumor cells", "assay": "In vitro cytotoxicity (51Cr release), primed and activated human macrophages against A375 cells", "details": "human macrophages (SC hematopoietic cell line and a healthy volunteer); priming with PMA (1 μm), activation with CCPA (1 μm)", "method": "(§1) B-16 melanoma cells are washed with serum free RPMI medium by centrifugation. 25-30 μCi of Na ^51Cr is diluted to 1 ml of RPMI and transferred to the melanoma cells suspension. The melanoma cells are incubated with Na ^51Cr at 37° C. for 1 hour. The unincorporated radioactivity is removed by centrifugation at 1000×g for 10 minutes. The melanoma cells are allowed to leak for 2 hours and then washed again. The final suspension is diluted in RPMI. The cell number is counted in a hemocytometer.\n(§2) Macrophages are washed with medium containing 100 mM MgCl2, 2 U/ml adenosine deaminase and 10% fetal bovine serum. Macrophages are then challenged with 1 μM PMA in the above medium for 2 hours and then stimulated with different concentrations of (0-1 μM) of 2-chloro-N^6-cyclopentyl adenosine (CCPA) for 30 minutes. The macrophages are then incubated with ^51Cr-labelled B-16 melanoma cells at a ratio of 20:1. Six hours later, a fraction of the supernatant is aspirated and counted in a gamma counter.\n(§3) Total releasable counts are measured by lysing the melanoma cells in hypotonic medium.\n(§4) The results are expressed as percentage (%) ^51Cr release as follows: [formula]"}, "[2]": {"system": "mouse P815 mastocytoma tumor cells", "assay": "In vitro cytotoxicity (51Cr release), primed and activated mouse macrophages against P815 cells", "details": "mouse macrophages (IC-21); priming with PMA (1 μM), activation with CCPA (1 μM)", "method": "as §1, §2, §3, §4\nThis same protocol is repeated, except that P815 mouse mastocytoma tumor cells are used instead of the B-16 melanoma cells."}, "TNF-α": {"system": "TNF-α", "assay": "Functional experiments: TNF-α release from macrophages (ELISA)", "assay_type": "cell-based, mouse", "experimental": "Macrophages are then challenged with 1 μM PMA in the above medium for 2 hours and then stimulated with different concentrations of (0-1 μM) of 2-chloro-N^6-cyclopentyl adenosine (CCPA) at 37° C. for 1-6 hours. The supernatant is collected and the TNF-α levels are estimated by commercially available ELISA kits (R & D Systems, Minneapolis, Minn.)."}, "[3]": {"system": "mouse B-16 melanoma cells", "assay": "In vitro cytotoxicity (51Cr release), primed and activated mouse macrophages against B-16 melanoma cells", "details": "priming with PMA (1 μm), activation with CCPA (lam)", "method": "as §1, §2, §3, §4\nPercentage ^51 Cr release is a measure of the lysing of cells (i.e., killing of cells), and is therefore an indicia of cytotoxicity."}, "[4]": {"system": "LNCaP prostate carcinoma cells", "details": "cited from earlier work"}, "Nb2 lymphoma": {"system": "Nb2 lymphoma", "details": "cited from earlier work"}, "[5]": {"system": "normal murine bone marrow cells", "details": "cited from earlier work"}, "K-562 leukemia": {"system": "K-562 leukemia", "details": "cited from earlier work"}, "A1 adenosine receptors": {"biological_target": "T1, A1 adenosine receptors (Mus musculus, UniProt Q60612)", "T1 sequence (Q60612 1-326)": "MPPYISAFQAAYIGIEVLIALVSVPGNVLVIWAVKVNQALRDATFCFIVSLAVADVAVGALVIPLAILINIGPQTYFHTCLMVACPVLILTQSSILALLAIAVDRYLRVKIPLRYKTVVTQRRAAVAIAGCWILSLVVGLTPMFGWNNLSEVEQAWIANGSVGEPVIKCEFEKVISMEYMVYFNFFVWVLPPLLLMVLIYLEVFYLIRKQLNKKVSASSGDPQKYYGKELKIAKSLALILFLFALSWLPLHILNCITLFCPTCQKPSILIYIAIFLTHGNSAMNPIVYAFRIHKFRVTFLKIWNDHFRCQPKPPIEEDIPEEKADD", "assay": "Competition experiments  against 125I-BWA844U in macrophage membranes", "assay_type": "binding", "experimental": "Non-specific binding is determined in presence of 1 mM theophylline. Membrane bound radioactivity is separated by filtration over a cell harvester. The data is analyzed by non-linear regression analysis using GraphPad prism software and the Ki value is calculated."}, "[6]": {"biological_target": "T2, A1 adenosine receptor expression (Homo sapiens, UniProt P30542)", "T2 construct": "This same protocol is repeated using membranes from human macrophages (SC cells)", "T2 sequence (P30542 1-326)": "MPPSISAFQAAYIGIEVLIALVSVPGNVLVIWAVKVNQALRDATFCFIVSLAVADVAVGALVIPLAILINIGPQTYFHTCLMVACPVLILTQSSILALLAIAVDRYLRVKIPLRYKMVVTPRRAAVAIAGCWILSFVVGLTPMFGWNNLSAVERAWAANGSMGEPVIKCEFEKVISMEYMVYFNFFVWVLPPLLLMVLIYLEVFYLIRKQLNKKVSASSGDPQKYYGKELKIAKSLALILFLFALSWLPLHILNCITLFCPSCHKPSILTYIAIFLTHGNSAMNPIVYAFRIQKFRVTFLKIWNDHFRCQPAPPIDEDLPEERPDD", "assay": "Saturation binding in human macrophages (SC) after cisplatin treatment", "assay_type": "cell-based", "details": "human macrophages (SC, ATCC); cisplatin 2.5 μM for 24 hours", "experimental": "Incubation of the macrophage fractions with the A1 adenosine receptor ligand ^125I-BWA844U (see Patel et al., J. Pharmacol. Exp. Ther. 33:585 (1988) in concentrations ranging from 1.25-20 nM was carried out at 37° C. for 1 hour. Non-specific binding is determined in the presence of 1 mM theophylline. Following incubation, membrane bound radioactivity is separated by filtration over a cell harvester and counted in a gamma counter. The data is analyzed by non-linear regression using GraphPad Prism software. Thc Bmax and kd values are calculated from the analyzed data.\nThis same protocol is repeated using membranes from human macrophages (SC cells)."}},
  "data": [
    {"compound": "OC[C@H]1O[C@@H](n2cnc3c(NC4CCCC4)nc(Cl)nc32)[C@H](O)[C@@H]1O", "note": "[CCPA, 2-chloro-N^6-cyclopentyladenosine]", "values": [
      {"measurement": "cytotoxicity to A375 human melanoma tumor cells", "setting": "[1]", "value": "cytotoxic"},
      {"measurement": "cytotoxicity for mouse P815 mastocytoma tumor cells", "setting": "[2]", "value": "cytotoxic"},
      {"measurement": "TNF-α release in WBC264-9C macrophages compared with IC-21 macrophages", "setting": "TNF-α; priming with PMA 1 μM, activation with CCPA 0-1 μM, 1-6 hours", "value": "lower"},
      {"measurement": "cytotoxicity of mouse B-16 melanoma cells", "setting": "[3]; macrophages from LPS-resistant mice (WBC264-9C, ATCC)", "value": 20, "unit": "%"},
      {"measurement": "cytotoxicity of mouse B-16 melanoma cells", "setting": "[3]; macrophages from LPS-sensitive mice (IC-21, ATCC)", "value": 50, "unit": "%"}
    ]},
    {"compound": "Nc1ncnc2c1ncn2[C@@H]1O[C@H](CO)[C@@H](O)[C@H]1O", "note": "[adenosine]", "values": [
      {"measurement": "tumor cell growth", "setting": "[4]", "value": "inhibits tumor cell growth"},
      {"measurement": "tumor cell growth", "setting": "Nb2 lymphoma", "value": "inhibits tumor cell growth"},
      {"measurement": "proliferation", "setting": "[5]", "value": "stimulating proliferation"},
      {"measurement": "tumor cell growth", "setting": "K-562 leukemia", "value": "inhibits tumor cell growth"}
    ]},
    {"compound": "N.N.[Cl][Pt][Cl]", "note": "[cisplatin]", "values": [
      {"measurement": "effect of pretreatment on affinity of WBC264-9C macrophage membranes for MCP-1", "setting": "A1 adenosine receptors; cisplatin 2.5 μM for 24 hours", "value": "increases the affinity"},
      {"measurement": "increase of A1 adenosine receptor expression (Bmax)", "setting": "[6]", "value": "approximately three-fold"},
      {"measurement": "effect of pretreatment on TNF-α release from WBC264-9C macrophages", "setting": "TNF-α; cisplatin 2.5 μM for 24 hours, then PMA and CCPA", "value": "increases TNF-α release"}
    ]},
    {"compound": "MCP-1: human recombinant monocyte chemotactic protein, chemoattractive for monocytes", "values": [
      {"measurement": "affinity (Ki) in membranes from WBC264-9C macrophages compared with IC-21 macrophages", "setting": "A1 adenosine receptors; competition with 0.1-0.2 nM 125I-BWA844U", "value": "lower"}
    ]}
  ]
}
